Target: GPR120L receptor (Homo sapiens (Human), UniProt Q5NUL3)
Test: Beta (β) arrestin 2 Interaction Assay (BRET assay), β-galactosidase enzyme fragment complementation
Assay type: cell-based
Conditions: CHO-K1 cells stably expressing the GPR120L receptor; β-arrestin recruitment; 2 hours incubation
Method: Beta (β) arrestin 2 Interaction Assay (BRET assay) was performed using CHO-K1 cells stably expressing the GPR120L receptor using β-galactosidase (Beta gal) enzyme fragment complementation assay. The measurement of GPR120 activation upon agonist activation was directly provided by β-arrestin recruitment. One day before the β-arrestin 2 assay, CHO-K1 cells were seeded and incubated overnight at 37° C. in a 5% CO2 humidified atmosphere. Cells were treated with the test compounds in the various concentrations ranging from 30 μM to 1 nM and incubated for 2 hours for GPCR (GPR120) activation. Extent of Arrestin recruitment was measured by adding detection reagents for Beta gal complementation assay and was further incubated for 1 hour. The chemi-luminescent signal was detected on Polar Star (BMG Labtech). The dose-response curve was analyzed using Sigma Plot/Graph Pad. The EC50 (concentration of the test compounds where 50% of compounds' maximal activity is observed) values were calculated from the dose-response curve.

GPR120L receptor, sequence (Q5NUL3 other isoform, or with tags, fused parts or gaps): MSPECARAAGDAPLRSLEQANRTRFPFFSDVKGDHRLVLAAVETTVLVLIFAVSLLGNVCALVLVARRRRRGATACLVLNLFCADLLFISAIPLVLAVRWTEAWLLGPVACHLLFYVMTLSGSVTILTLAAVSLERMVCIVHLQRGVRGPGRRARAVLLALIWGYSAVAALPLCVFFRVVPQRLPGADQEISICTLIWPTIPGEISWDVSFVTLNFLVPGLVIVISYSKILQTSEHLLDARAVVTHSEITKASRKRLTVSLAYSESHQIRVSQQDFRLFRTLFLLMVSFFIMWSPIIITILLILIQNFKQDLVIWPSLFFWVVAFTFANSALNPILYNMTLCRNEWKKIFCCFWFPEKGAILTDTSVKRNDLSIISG

| SMILES | EC50 [nM] |
| --- | --- |
| O=C(O)CCc1ccc(OCc2cc(F)ccc2-c2ccc(C3(O)CCC3)cc2)cc1 [Example 14, 3-(4-((4-Fluoro-4′-(1-hydroxycyclobutyl)-[1,1′-biphenyl]-2-yl)methoxy)phenyl)propanoic acid] | 500 to 5000 |
| O=C(O)CCCc1ccc(OCc2ccccc2-c2ccc3c(c2)CCC3)cc1 [Example 33, 4-(4-((2-(2,3-Dihydro-1H-inden-5-yl)benzyl)oxy)phenyl)butanoic acid] | 10 to 500 |
| O=C(O)CCCc1ccc(OCc2cc(F)ccc2-c2nc3c(s2)COCC3)cc1 [Example 49, 4-(4-((2-(6,7-Dihydro-4H-pyrano[4,3-d]thiazol-2-yl)-5-fluorobenzyl)oxy)phenyl)butanoic acid] | 10 to 500 |
| O=C(O)CCCc1ccc(OCc2cc(F)ccc2-c2cnc(C3CC3)nc2)cc1 [Example 31, 4-(4-((2-(2-Cyclopropylpyrimidin-5-yl)-5-fluorobenzyl)oxy)phenyl)butanoic acid] | 10 to 500 |
| O=C(O)CCCc1ccc(OCc2cc(F)ccc2-c2ccc(C3CC3)s2)cc1 [Example 11, 4-(4-((2-(5-Cyclopropylthiophen-2-yl)-5-fluorobenzyl)oxy)phenyl)butanoic acid] | 10 to 500 |
| O=C(O)CCCc1ccc(OCc2cc(F)ccc2-c2ccc(C3CCC3)s2)cc1 [Example 28, 4-(4-((2-(5-Cyclobutylthiophen-2-yl)-5-fluorobenzyl)oxy)phenyl)butanoic acid] | 10 to 500 |
| O=C(O)CCCc1ccc(OCc2cc(F)ccc2-c2ccc3c(c2)CC3)cc1 [Example 10, 4-(4-((2-(Bicyclo[4.2.0]octa-1(6),2,4-trien-3-yl)-5-fluorobenzyl)oxy)phenyl)butanoic acid] | 10 to 500 |
| O=C(O)CCCc1ccc(OCc2cc(F)ccc2-c2ccc3c(c2)CCO3)cc1 [Example 22, 4-(4-((2-(2,3-Dihydrobenzofuran-5-yl)-5-fluorobenzyl)oxy)phenyl)butanoic acid] | 10 to 500 |
| N#CC1(c2ccc(-c3ncccc3COc3ccc(CCC(=O)O)cc3)cc2)CC1 [Example 21, 3-(4-((2-(4-(1-Cyanocyclopropyl)phenyl)pyridin-3-yl)methoxy)phenyl)propanoic acid] | 5000 to 50000 |
| O=C(O)CCCc1ccc(OCc2cc(F)ccc2-c2ccc(C3CCCCC3)cc2)cc1 [Example 16, 4-(4-((4′-Cyclohexyl-4-fluoro-[1,1′-biphenyl]-2-yl)methoxy)phenyl)butanoic acid] | 500 to 5000 |
| C=C1CCCc2nc(-c3ccc(F)cc3COc3ccc(CCCC(=O)O)cc3)sc21 [Example 25, 4-(4-((5-Fluoro-2-(7-methylene-4,5,6,7-tetrahydrobenzo[d]thiazol-2-yl)benzyl)oxy)phenyl)butanoic acid] | 500 to 5000 |
| CC1(c2ccc(-c3ccc(F)cc3COc3ccc(CCCC(=O)O)cc3)s2)CC1 [Example 40, 4-(4-((5-Fluoro-2-(5-(1-methylcyclopropyl)thiophen-2-yl)benzyl)oxy)phenyl)butanoic acid] | 10 to 500 |
| O=C(O)CCCc1ccc(OCc2cc(F)ccc2-c2ccc(C3CC3)cc2)cc1 [Example 7, 4-(4-((4′-Cyclopropyl-4-fluoro-[1,1′-biphenyl]-2-yl)methoxy)phenyl)butanoic acid] | 10 to 500 |
| O=C(O)CCCc1ccc(OCc2cc(F)ccc2-c2ccc3c(c2)CCC3)cc1 [Example 8, 4-(4-((2-(2,3-Dihydro-1H-inden-5-yl)-5-fluorobenzyl)oxy)phenyl)butanoic acid] | 10 to 500 |
| O=C(O)CCc1ccc(OCc2cc(F)ccc2-c2ccc(C3COC3)cc2)cc1 [Example 13, 3-(4-((4-Fluoro-4′-(oxetan-3-yl)-[1,1′-biphenyl]-2-yl)methoxy)phenyl)propanoic acid] | 5000 to 50000 |
| O=C(O)CCCc1ccc(OCc2cc(F)ccc2-c2ccc(C3(O)CCC3)s2)cc1 [Example 12, 4-(4-((5-Fluoro-2-(5-(1-hydroxycyclobutyl)thiophen-2-yl)benzyl)oxy)phenyl)butanoic acid] | 500 to 5000 |
| O=C(O)CCc1ccc(OCc2cc(F)ccc2-c2ccc3c(c2)CC3)cn1 [Example 20, 3-(5-((2-(Bicyclo[4.2.0]octa-1(6),2,4-trien-3-yl)-5-fluorobenzyl)oxy)pyridin-2-yl)propanoic acid] | 500 to 5000 |
| N#CC1(c2ccc(-c3ccc(F)cc3COc3ccc(CCC(=O)O)cc3)s2)CC1 [Example 2, 3-(4-((2-(5-(1-Cyanocyclopropyl)thiophen-2-yl)-5-fluorobenzyl)oxy)phenyl)propanoic acid] | 500 to 5000 |
| O=C(O)CCCc1ccc(OCc2cc(F)ccc2-c2ccc3c(c2)CCCC3)cc1 [Example 9, 4-(4-((5-Fluoro-2-(5,6,7,8-tetrahydronaphthalen-2-yl)benzyl)oxy)phenyl)butanoic acid] | 10 to 500 |
| O=C(O)CCCc1ccc(OCc2ccccc2-c2ccc3c(c2)CC3)cc1 [Example 26, 4-(4-((2-(Bicyclo[4.2.0]octa-1(6),2,4-trien-3-yl)benzyl)oxy)phenyl)butanoic acid] | 10 to 500 |
| O=C(O)CCCc1ccc(OCc2cc(F)ccc2-c2nc3c(s2)COCC3)cc1 [Example 48, 4-(4-((2-(6,7-Dihydro-4H-pyrano[4,3-d]thiazol-2-yl)-5-fluorobenzyl)oxy)phenyl)butanoic acid] | 500 to 5000 |

Source: US10227360B2, “Compounds for use as GPR120 agonists” (PIRAMAL ENTERPRISES LIMITED, priority 2014, dated 2019)
